Results from paper PMC7321218, “Synthetic (E)-3-Phenyl-5-(phenylamino)-2-styryl-1,3,4-thiadiazol-3-ium Chloride Derivatives as Promising Chemotherapy Agents on Cell Lines Infected with HTLV-1” (Molecules, 2020).
Entries after “also recorded” stand apart in the source; their conditions may differ.

How the values were obtained:
Jurkat cells [1] = experiment: MTT cell viability assay, Jurkat cells; assay type: cell-based; conditions: Homo sapiens, 72 h incubation
Method: (§1) The 1 × 10^5 cells/mL were incubated with or without compounds 5a, 5b, 5c, 5d or DMSO (Sigma-Aldrich/Merck, St. Louis, MO, USA) at 37 °C in humidified atmosphere with a 5% CO2. After 72 h, the cellular viability was assessed using 5 mg/mL of 3-(4,5-dimethylthiazol-2-yl)-2,5-diphenyltetrazolium bromide (MTT, Sigma-Aldrich/Merck). Cells were incubated for 3 h, centrifuged, and formazan crystal was dissolved with DMSO. Plates were read on a Paradigma® spectrofluorometer (Molecular Devices, San Jose, CA, USA) at a 490 nm wavelength. Cell death was also evaluated using Propidium Iodide (Biolegend) exclusion after a 24 h culture under the same conditions described above. The fluorescence was examined by FACSCalibus flow cytometry (BD) and 10,000 events were acquired for the experimental data. Analysis was accomplished using Summit V4.0 or FlowJo software (Becton, Dickingson and Company, Santa Barbara, CA, USA).
(§2) Statistical analysis was performed by one-way analysis of variance (ANOVA) and means were compared using a Tukey post-test. The IC50 values were obtained using nonlinear regression. Data were analyzed using GraphPad Prism-5 software (GraphPad software, San Diego, CA, USA), and p ≤ 0.05 was considered statistically significant.

[2] = biological target: T1, human serum albumin (HSA) (Homo sapiens, UniProt P02768); experiment: Time-resolved fluorescence decay of HSA; assay type: binding; conditions: HSA 1.00 × 10^−5 M with 1.32 × 10^−5 M compound, ca 298 K
T1 construct: three analogous domains (I, II, and III) having amino acid residues of 1–195, 196–383, and 384–585
Method: The time-resolved fluorescence decay of a 3.0 mL solution of HSA (1.00 × 10^−5 M, in phosphate buffer solution-PBS) was measured in the absence and presence of the maximum concentration of each mesoionic used in the steady-state fluorescence studies (1.32 × 10^−5 M) at room temperature (ca 298 K).

[3] = biological target: T1, human serum albumin (HSA); experiment: Zeta potential of HSA (surface perturbation); assay type: binding; conditions: for ζ (zeta potential of HSA): HSA with 1.32 × 10^−5 M compound, HSA alone −9.15 ± 1.79; for Conductance: ZP measurement, HSA with compound
Method: All zeta potential (ZP) measurements were performed with 10 runs at 298 K and results were reported in terms of ZP ± SD. The ZP was measured for the HSA solution (1.0 × 10^−5 M in PBS solution) without and in the presence of the mesoionic compounds at the maximum concentration used in the steady-state fluorescence experiments (1.32 × 10^−5 M) at room temperature (ca. 298 K).

[4] = test system: MT2 cells (HTLV-1-infected cell line); experiment: MTT cell viability assay, MT2 cells; assay type: cell-based; conditions: Homo sapiens, 72 h incubation
Method: as §1, §2

[5] = biological target: T1, human serum albumin (HSA); experiment: Circular dichroism of HSA (secondary structure); assay type: binding; conditions: CD, 310 K, 1.32 × 10^−5 M compound; for α-helix % of HSA at 222 nm: HSA alone 80.1%; for α-helix % of HSA at 208 nm: HSA alone 86.7%
Method: The CD spectra were recorded in the 200–250 nm range at 310 K for free serum albumin (1.00 × 10^−6 M) and for HSA with the higher concentration of each mesoionic used in the steady-state fluorescence studies (1.32 × 10^−5 M). Each spectrum was taken on the average of three scans. The obtained data were further converted into mean residue ellipticity (MRE) according to Equation (6):(6) MRE=θ/(10.n.l.Cp) where θ is the observed ellipticity (mdeg); n is the number of amino acid residues (585 to HSA), l is the length of the optical cuvette (1.0 cm), and Cp is the molar concentration of HSA (1.00 × 10^−6 M). The 5a–d induced helical content perturbation at 208 and 222 nm were calculated using Equation (7):(7) (A) α−helix%(−MRE208−4000)/(33000−4000)×100(B) α−helix%(−MRE222−2340)/(30300)×100 where MRE208 and MRE222 are the significant molar residual ellipticities (deg.cm^2/dmol) at 208 nm and 222 nm, respectively.

[6] = test system: C91/PL cells (HTLV-1-infected); experiment: MTT cell viability assay, C91/PL cells; assay type: cell-based; conditions: 72 h incubation
Method: as §1, §2

[7] = biological target: T1, human serum albumin (HSA); experiment: Steady-state fluorescence quenching of HSA; assay type: binding; conditions: for Kd: Ka (modified Stern–Volmer binding constant); for ΔS°: van't Hoff, 296–310 K
Method: The steady-state fluorescence spectra were measured in the 290–450 nm range, at 296, 303, and 310 K, with the excitation wavelength at λ = 295 nm. To a 3.0 mL solution containing an appropriate concentration of HSA (1.00 × 10^−5 M), successive aliquots from a stock solution of each mesoionic under study (1.00 × 10^−3 M in DMSO) were added, with final concentrations of 0.17, 0.33, 0.50, 0.66, 0.83, 0.99, 1.15, and 1.32 × 10^−5 M. The addition was done manually by using a micro syringe. The inner filter correction for the observed steady-state fluorescence of HSA:mesoionic compounds was done in order to compensate for the absorption value of 5a–d at the excitation and emission wavelengths (295 and 340 nm, respectively) when applying Equation (1):(1) Fcor=Fobs10^[Aexc+Aem/2] where Fcor and Fobs are the corrected and observed steady-state fluorescence intensity values, respectively, while Aex and Aem represent absorbance values for each ligand at the excitation and emission wavelengths (λ = 295 and 340 nm, respectively).
The binding properties of each ligand toward HSA—Stern–Volmer quenching constant (KSV), bimolecular quenching rate constant (kq), modified Stern–Volmer binding constant (Ka), enthalpy change (ΔH°), entropy change (ΔS°), and Gibbs’ free energy change (ΔG°)—were calculated from the steady-state fluorescence quenching data according to Equations (2)–(5):(2) F0/F=1+kqτ0[Q]=1+KSV[Q] (3) F0/F0−F=1/f[Q]Ka+1/f (4) lnKa=−ΔH^0/RT+ΔS^0/R (5) ΔG^0=ΔH^0−TΔS^0 where F0 and F are the steady-state fluorescence intensities of HSA in the absence and presence of mesoionics, respectively. [Q] and τ0 are the ligand concentration and fluorescence lifetime, respectively, of the fluorophore in the absence of quencher (5.54 × 10^−9 s—experimental data, see Section 2.3.1). T, ƒ, and R are the temperature (296, 303, and 310 K), fraction of the initial fluorescence intensity that corresponds to fluorophore that is accessible to the quencher (f ≈ 1.0), and gas constant (8.3145 J/mol.K), respectively.

C91/PL cells = experiment: Necrosis by propidium iodide labeling (flow cytometry), C91/PL cells; assay type: cell-based; conditions: 25 µM, 24 h, PI labeling
Method: as §1

salmon DNA = experiment: DNA interaction assay (fluorescence emission); assay type: binding; conditions: 25 µM compound, DNA 2, 10 and 100 ng/mL
Method: Fluorescence emission spectroscopic titration experiments of DNA were conducted in the absence and presence of a constant concentration of the mesoionic compounds 5a–d. […] After that, the fluorescence emission was recorded after 1 h of DNA incubation with or without compounds 5a–d (25 µM) or DMSO, over a wavelength range of 300 to 600 nm in a Tris-acetate-EDTA buffer (Promega) at room temperature. The slit widths for excitation and emission were set to 5.0 nm. The fluorescence was examined using a F4500 fluorometer (Hitachi, New Jersey, NJ, USA).

Jurkat cells [8] = experiment: Necrosis by propidium iodide labeling (flow cytometry), Jurkat cells; assay type: cell-based, human; conditions: 25 µM, 24 h, PI labeling
Method: as §1

MT2 cells = experiment: Necrosis by propidium iodide labeling (flow cytometry), MT2 cells; assay type: cell-based; conditions: 25 µM, 24 h, PI labeling
Method: as §1

T1 sequence (P02768 25-609): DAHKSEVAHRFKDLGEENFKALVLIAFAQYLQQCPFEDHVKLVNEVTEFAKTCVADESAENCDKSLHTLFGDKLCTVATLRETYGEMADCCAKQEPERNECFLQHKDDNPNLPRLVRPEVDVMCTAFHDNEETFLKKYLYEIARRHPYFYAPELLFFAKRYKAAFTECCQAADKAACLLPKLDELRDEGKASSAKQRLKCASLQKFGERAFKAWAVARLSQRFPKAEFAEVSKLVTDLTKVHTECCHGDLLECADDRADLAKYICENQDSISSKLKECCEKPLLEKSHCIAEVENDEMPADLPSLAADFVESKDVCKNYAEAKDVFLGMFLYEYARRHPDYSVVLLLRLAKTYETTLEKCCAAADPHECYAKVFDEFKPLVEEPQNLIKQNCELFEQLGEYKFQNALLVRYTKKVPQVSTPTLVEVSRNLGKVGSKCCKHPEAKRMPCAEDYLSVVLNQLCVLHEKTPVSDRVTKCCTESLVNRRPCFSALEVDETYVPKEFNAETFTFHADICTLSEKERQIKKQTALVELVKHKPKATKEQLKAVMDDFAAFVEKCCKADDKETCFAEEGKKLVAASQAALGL

Row | SMILES | IC50 (Jurkat cells [1]) | Relative % of τ1 [2] | Relative % of τ2 [2] | τ1 (HSA fluorescence lifetime) [2] | τ2 (HSA fluorescence lifetime) [2] | ζ (zeta potential of HSA) [3] | Conductance [3] | IC50 [4] | α-helix % of HSA at 222 nm [5] | α-helix % of HSA at 208 nm [5] | IC50 [6] | KSV (Stern–Volmer quenching constant) ([7]; 296 K) | kq (bimolecular quenching rate constant) ([7]; 296 K) | ΔG° ([7]; 296 K) | KSV (Stern–Volmer quenching constant) ([7]; 303 K) | kq (bimolecular quenching rate constant) ([7]; 303 K) | ΔG° ([7]; 303 K) | KSV (Stern–Volmer quenching constant) ([7]; 310 K) | kq (bimolecular quenching rate constant) ([7]; 310 K) | ΔG° ([7]; 310 K) | other results
1 | Cc1ccc(Nc2n[n+](-c3ccccc3)c(/C=C/c3ccccc3)s2)cc1.[Cl-] [5a, (E)-3-Phenyl-5-(4′-methylphenylamino)-2-styryl-1,3,4-thiadiazol-3-ium chloride] | 2.15 µM | 26.4% | 73.6% | 1.61 ± 0.13 ns | 5.38 ± 0.13 ns | −8.62 ± 1.40 mV | 29,615 µs | 1.51 µM | 78.5% | 84.0% | 2.82 µM | 1.19 ± 0.03 × 10^5 M^−1 | 2.15e+13 M⁻¹ s⁻¹ | -6.62 kcal/mol | 1.20 ± 0.03 × 10^5 M^−1 | 2.16e+13 M⁻¹ s⁻¹ | -6.76 kcal/mol | 1.21 ± 0.03 × 10^5 M^−1 | 2.18e+13 M⁻¹ s⁻¹ | -6.91 kcal/mol | Kd ([7]; 296 K): 13 µM; Kd ([7]; 303 K): 13.3 µM; Kd ([7]; 310 K): 13.7 µM; ΔS° [7]: 8.46 ± 0.05 × 10^−2 kJ.mol^−1K^−1
2 | COc1ccc(Nc2n[n+](-c3ccccc3)c(/C=C/c3ccccc3)s2)cc1.[Cl-] [5b, (E)-3-Phenyl-5-(4′-methoxyphenylamino)-2-styryl-1,3,4-thiadiazol-3-ium chloride] | 1.74 µM | 23.9% | 76.1% | 1.66 ± 0.12 ns | 5.25 ± 0.11 ns | −8.55 ± 1.46 mV | 29,642 µs | 5.09 µM | 77.3% | 82.4% | 4.5 µM | 1.10 ± 0.02 × 10^5 M^−1 | 1.99e+13 M⁻¹ s⁻¹ | -6.69 kcal/mol | 1.14 ± 0.03 × 10^5 M^−1 | 2.06e+13 M⁻¹ s⁻¹ | -6.84 kcal/mol | 1.15 ± 0.03 × 10^5 M^−1 | 2.07e+13 M⁻¹ s⁻¹ | -6.98 kcal/mol | necrotic cells (C91/PL cells): 33.75 ± 1.65%; interaction with DNA strands (salmon DNA): can interact with the DNA strands; also recorded: could interact with DNA strands; necrotic cells (Jurkat cells [8]): 75.37 ± 3.63%; Kd ([7]; 296 K): 11.7 µM; Kd ([7]; 303 K): 11.8 µM; Kd ([7]; 310 K): 12.1 µM; ΔS° [7]: 8.81 ± 0.06 × 10^−2 kJ.mol^−1K^−1; necrotic cells (MT2 cells): 35.34 ± 7.80%
3 | Clc1ccc(Nc2n[n+](-c3ccccc3)c(/C=C/c3ccccc3)s2)cc1.[Cl-] [5c, (E)-3-Phenyl-5-(4′-chlorophenylamino)-2-styryl-1,3,4-thiadiazol-3-ium chloride] | 5.6 µM | 33.0% | 67.0% | 1.68 ± 0.11 ns | 5.66 ± 0.16 ns | −8.77 ± 1.52 mV | 29,622 µs | 6.15 µM | 78.8% | 83.8% | 4.5 µM | 1.30 ± 0.03 × 10^5 M^−1 | 2.35e+13 M⁻¹ s⁻¹ | -6.72 kcal/mol | 1.36 ± 0.04 × 10^5 M^−1 | 2.45e+13 M⁻¹ s⁻¹ | -6.91 kcal/mol | 1.40 ± 0.03 × 10^5 M^−1 | 2.53e+13 M⁻¹ s⁻¹ | -7.1 kcal/mol | Kd ([7]; 296 K): 11.7 µM; Kd ([7]; 303 K): 11 µM; Kd ([7]; 310 K): 10.4 µM; ΔS° [7]: 11.6 ± 0.1 × 10^−2 kJ.mol^−1K^−1
4 | Brc1ccc(Nc2n[n+](-c3ccccc3)c(/C=C/c3ccccc3)s2)cc1.[Cl-] [5d, (E)-3-Phenyl-5-(4′-bromophenylamino)-2-styryl-1,3,4-thiadiazol-3-ium chloride] | 2.27 µM | 29.8% | 70.2% | 1.65 ± 0.10 ns | 5.37 ± 0.13 ns | −8.69 ± 1.50 mV | 29,638 µs | 7.7 µM | 77.7% | 82.0% | 5.25 µM | 1.45 ± 0.02 × 10^5 M^−1 | 2.61e+13 M⁻¹ s⁻¹ | -6.67 kcal/mol | 1.54 ± 0.03 × 10^5 M^−1 | 2.79e+13 M⁻¹ s⁻¹ | -6.86 kcal/mol | 1.60 ± 0.03 × 10^5 M^−1 | 2.89e+13 M⁻¹ s⁻¹ | -7.03 kcal/mol | Kd ([7]; 296 K): 11.5 µM; Kd ([7]; 303 K): 11.1 µM; Kd ([7]; 310 K): 10.8 µM; ΔS° [7]: 10.6 ± 0.1 × 10^−2 kJ.mol^−1K^−1
